Laboratory results: patent publication US8309766B2 (Obschestvo S. Organichennoi Otvetstvennostiyu …, priority 2005, dated 2012)

Assays:
[1] = test system: gastric mucosa of rats; assay: Ulcerogenic effect on gastric mucosa; assay type: in vivo, outbreed rats; conditions: 30 mg/kg once intragastrally, at 24 hours, M ± m
Procedure: The tests were carried out on females of outbreed rats weighing 300-320 grams. The compounds tested were administered once intragastrally at a dose 30 mg/kg to rats deprived of feed for 24 hours prior to the test. Animals in the control group were administered distilled water in the same volume. At 24 hours the animals were sacrificed and stomachs were extracted. An empty stomach was filled with 2% formalin solution and it was placed into a beaker with formalin. 30 minutes later, the stomach was opened along the great curvature, expanded on a slide, fixed and washed with distilled water. Using the magnifying glass MBS-9 (8-fold magnification) length and width of gastric mucosa defects was measured and area in mm^2 was calculated (1 division of the magnifying glass ruler=0.1 mm). Ulcerogenic effect of a substance was assessed by ulcerous lesion area of gastric mucosa according to the technique presented in Rukovodstvo po experimental'nomu (doklinicheskomu) izucheniju novykh pharmacologicheskikh veshchestv (the Guide on Experimental (pre-clinical) Study of Novel Pharmacological Substances)./Moscow. “Remedium” publishers. 2000, 398 pages.

[2] = test system: carrageenan edema of rat paw; assay: Carrageenan edema of rat paw; assay type: in vivo, outbreed white rats; conditions: rats; 10% ointment; 4 hours post carrageenan
Procedure: The tests were conducted on males of outbreed white rats weighing 250-270 grams. The model of carrageenan edema was used which model is described in Winter et al. In: DeRosa M., Giroud J. P. Willoughby D. A. Studies of the mediators of acute inflammatory response induced in rats in different sites by carrageenan and turpentine.//J. Pharmacol. 1971. V. 104. P. 15-29.
0.1 ml 1% carrageenan solution (SERVA) was subplantarly injected into a right paw of rats. The animals were placed into individual chambers. […] Paw volume was measured using a pletismometer (Ugo Besile) at 4 hours post carrageenan administration. Therapeutic effect of the ointment was assessed by the inhibition degree of inflammatory reaction as compared to an intact left paw of the given animal and to a paw reaction of a control (untreated) group of rats. Inhibition of inflammatory reaction expressed in percent was calculated according to the formula: […]

[3] = test system: HL-60 cells; conditions: Chen et al., Chinese Pharmaceutical Journal 2001; cited from earlier work

For `COc1ccc2c(c1)c(CC(=O)O)c(C)n2C(=O)c1ccc(Cl)cc1` [Indomethacin, reference compound], the “Area of ulcerous lesion” value [1] was 7.3 ± 1.75 mm^2, the “Edema inhibition (%)” value [2] was 50.0% and the “Paw volume gain (%)” value [2] was 45.0%.

For `O=C(Cc1ccccc1)N[C@@H](Cc1ccccc1)C(=O)O` [XIX, phenylacetylphenylalanine], the cellular differentiation [3] is given as “inductor of cellular differentiation”.
